Data reported in PubChem BioAssay (NCI).
“And” between values parts separate entries of the source, which are not always exact repeats. Identical values can stand only once.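 The compound was tested at five concentrations on cells cultured in 96-well plates, with a 48-hour exposure period. The concentration for 50% growth inhibition is given as GI50. Definition used: TGI = concentration required for complete inhibition of growth.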

Legend:
Assay in all cases: NCI-60 cell line screen, 48 h
M14 melanoma = test system: M14 melanoma
OVCAR-8 ovarian = test system: OVCAR-8 ovarian
MDA-MB-231 breast = test system: MDA-MB-231 breast
SF-539 CNS = test system: SF-539 CNS
DU-145 prostate = test system: DU-145 prostate
HCC-2998 colon = test system: HCC-2998 colon
NCI-H522 lung = test system: NCI-H522 lung
HS 578T breast = test system: HS 578T breast
SR leukemia = test system: SR leukemia

SMILES | TGI (M14 melanoma) [µM] | TGI (OVCAR-8 ovarian) | TGI (MDA-MB-231 breast) [µM] | TGI (SF-539 CNS) | TGI (DU-145 prostate) [µM] | TGI (HCC-2998 colon) [µM] | TGI (NCI-H522 lung) [µM] | TGI (HS 578T breast) | TGI (SR leukemia) [µM] | GI50 (NCI-H522 lung) | GI50 (SR leukemia) [µM]
Cc1cc(C)n2c(nc3ccccc32)c1C#N | > 100 | > 100 µM | > 100 | > 100 µM | > 100 | > 100 |  |  |  |  | 
c1cc2c(cc1[C@@H]1OC[C@@H]3[C@H]1CO[C@H]3c1ccc3c(c1)OCO3)OCO2 | > 100 | > 100 µM | > 100 | > 100 µM | > 100 | > 100 | > 100 |  |  |  | 
Cc1cc2occ(S(=O)(=O)NC(=O)Nc3ccc(Cl)cc3)c(=O)c2c(=O)o1 | > 100 | > 100 µM | > 100 | > 100 µM | > 100 | > 100 | > 100 | > 100 µM |  |  | 
O=C(NCc1ccccc1Cl)c1c(O)c2ccccc2[nH]c1=O |  | > 100 µM | 45.3 | > 100 µM | > 100 | > 100 | > 100 | > 100 µM | > 100 |  | 
CCCCCCCc1ccc(-c2nnc(N=Nc3ccc(OCCCCC)cc3)s2)s1 | > 100 |  | > 100 | > 100 µM | > 100 | > 100 | > 100 | > 100 µM |  |  | 
COc1ccc(C23OCC(Cc4cc(OC)c(OC)cc42)C3CO)cc1OC (configuration not stated) | > 100 |  | > 100 | > 100 µM | > 100 | > 100 | > 100 |  | > 100 |  | 
COc1ccc(CC[N+]2(C)COc3cc4oc(=O)cc(C)c4cc3C2)cc1OC (configuration not stated) | > 100 | > 100 µM | > 100 |  | > 100 | > 100 | > 100 | > 100 µM | > 100 |  | 
S=c1[nH]nc(CCCCCCCCc2n[nH]c(=S)o2)o1 | > 100 | > 100 µM | > 100 | > 100 µM | > 100 |  |  |  |  |  | 
COc1cc2c(cc1OC)C(=O)/C(=C/c1ccc(N(C)C)cc1)CC2 | > 10 | > 10 µM | > 10 | > 10 µM | > 10 | > 10 |  | > 10 µM | > 10 |  | 
CSc1nc[nH]c1C(N)=S | > 100 | > 100 µM | > 100 | > 100 µM | > 100 |  | > 100 | > 100 µM |  |  | 
COc1cccc(CCCNC(=O)Cc2ccccc2CO)c1 | > 100 | > 100 µM | > 100 | > 100 µM | > 100 | > 100 |  | > 100 µM | > 100 |  | 
C=CCNC1=C2C[C@@H](C)C[C@@H](OC)[C@H](OC(=O)CCN(C)C)[C@H](C)/C=C(\C)[C@@H](OC(N)=O)[C@H](OC)/C=C\C=C(/C)C(=O)NC(=CC1=O)C2=O | 20.1 | 48 µM | 8.89 | 16.8 µM |  | 0.752 | 17.3 | 40.4 µM | > 32.5 |  | 
CC(=O)C(C(C)=O)[C@H]1OC(C)(C)O[C@H]1[C@H]1COC(C)(C)O1 | > 100 | > 100 µM | 89 | 41.5 µM | > 100 | 86 | 93.3 | > 100 µM |  |  | 
COc1ccc(/C=N/Nc2nnc3c(n2)c2ccccc2c2nn(-c4ccccc4Cl)nc23)cc1 | > 100 | > 100 µM | > 100 |  | > 100 |  | > 100 | > 100 µM |  |  | 
COc1cccc(N=NN2CCCC2)c1 | > 100 | > 100 µM | > 100 | > 100 µM | > 100 |  | > 100 | > 100 µM | > 100 |  | 
CC(C)=CCCC1(C)C2COC(=O)C21 (configuration not stated) |  |  | > 100 |  | > 100 | > 100 | > 100 |  | > 100 | > 100 µM and 47.2 µM | > 100
COC(=O)c1ccccc1C1CN=NC12Cc1c(C)ccc(C)c1C2=O (configuration not stated) | > 100 | > 100 µM | > 100 | > 100 µM | > 100 | > 100 | > 100 | > 100 µM |  |  | 
COC(=O)[C@@H]1COC(=O)N1 | > 100 | > 100 µM | > 100 | > 100 µM | > 100 | > 100 | > 100 | > 100 µM |  |  | 
COc1cc(/C=C2/Oc3c(OC)cccc3C2=O)ccc1O | > 100 | > 100 µM | > 100 |  | > 100 | > 100 | > 100 | > 100 µM | > 100 |  | 
NC(N)=NCCCC(NC(=O)c1c2ccccc2nc2ccccc12)C(=O)O (configuration not stated) | > 100 | > 100 µM | > 100 | > 100 µM | > 100 | > 100 | > 100 |  | > 100 |  | 
CC(=O)O[C@H]1C(=O)[C@@]2(C)[C@H]([C@H](OC(=O)c3ccco3)[C@]3(O)C[C@H](OC(=O)[C@H](O)[C@@H](NC(=O)c4ccccc4)c4ccccc4)C(C)=C1C3(C)C)[C@]1(OC(C)=O)CO[C@@H]1C[C@@H]2O | > 25 | > 17.2 µM | > 25 | 0.371 µM | > 25 | 20 |  | > 8.33 µM | > 7.67 |  | 
Cc1ccc(-n2cc(-c3ccc(Cl)cc3)c3c(=N)n(N)cnc32)cc1 | 17.2 | 29.9 µM | 25.3 | 27 µM | 34.5 | 19.2 | 28 | 17.5 µM |  |  | 
C[n+]1c(-c2ccc(/C=N/NC(=O)C(=O)N/N=C/c3ccc(-c4cn5ccccc5[n+]4C)cc3)cc2)cn2ccccc21 | > 100 | > 100 µM | > 100 | > 100 µM | > 100 | > 100 | > 100 | > 100 µM |  |  | 
CCC(=C/[C@H](C)C/C=C/C(C)=C/[C@@H](C)C(=O)[C@@H](C)[C@H](O)[C@@H](C)CC)/C=C/[C@H]1CC=CC(=O)O1 | 0.159 | 2.79 µM and 11.3 µM |  | 0.174 µM and 1.35 µM | < 0.0012 | < 0.0012 | < 0.0012 | 7.02 µM and 2.38 µM |  |  | 
COC1OC(C(=O)O)C2OC(C)(C)OC12 (configuration not stated) | > 100 | > 100 µM | > 100 | > 100 µM | > 100 | > 100 | > 100 |  | > 100 |  | 
